According to patent US12552796B2, “EED inhibitor, and preparation method therefor and use thereof” (SHANGHAITECH UNIVERSITY, priority 2019, dated 2026):
Read-outs that look alike come from different tables or passages of the source.

What was measured:
[1] = system: cellular H3K27 methylation; test: Cellular H3K27 methylation assay (Western blot of H3K27me3 in HeLa cells); format: cell-based; conditions: Homo sapiens, 72 h, read-out: PD IC50
WSU-DLCL2 cells = test: Cell proliferation assay, WSU-DLCL2; format: cell-based; conditions: Homo sapiens
Procedure: (§1) Human B-cell non-Hodgkin's lymphoma cells WSU-DLCL2, Karpas422 and Pfeiffer were cultured in cell culture flasks in a sterile incubator with 95% relative humidity and 5% CO2 at 37° C. The medium was RPMI-1640 (Gibco, product No. 31800022) containing 15% fetal bovine serum (FBS, Gibco, product No. 10099141) and 0.1% penicillin/streptomycin solution (P/S). In order to assay the effects of compounds on cell proliferation, cells in exponential growth phase were seeded into a 12-well plate (Nunc, product No. 150628) with 1 mL of medium per well, wherein WSU-DLCL2 and Karpas422 were seeded at a density of 1×10^5 cells/well, and Pfeiffer was seeded at a density of 2×10^5 cells/well. At the same time, different concentrations of compounds were added to the wells that had seeded with cells (6 concentrations were set for each compound at 3-fold serial dilution), and the final concentration of DMSO was 0.1%. After that, the number of viable cells was determined by Vi-CELL (Beckman Coulter) for WSU-DLCL2 and Pfeiffer every 3 days, and for Karpas422 on days 4, 7, and 11, respectively. The cells counted each time were seeded into a new 12-well plate at the same density, and supplemented with fresh medium to 1 mL. Different concentrations of compounds were added at the same time. WSU-DLCL2 and Pfeiffer were cultured to the 9th day, and Karpas422 was cultured to the 14th day. Cell data were collected uniformly, and analyzed with GraphPad prisim5. Dose curves were fitted, and IC50 values of the assay compounds were obtained.

Karpas422 cells = test: Cell proliferation assay, Karpas422; format: cell-based; conditions: Homo sapiens, KARPAS-422; Karpas422 cells, cultured to the 14th day; read-out: Anti-proliferation IC50
Procedure: as §1

[2] = Pharmacokinetic study in rats; format: in vivo, SD rats; conditions: rat; for AUC(0-inf) / Cmax / Tmax / clearance / half-life / MRT inf: male, SD, plasma; for MRT inf: read-out: MRT0-∞
Procedure: Six SPF SD rats, male, weighing 180-220 g, were randomly divided into 2 groups with 3 rats in each group. The compounds of the present disclosure were administered by oral gavage (PO) and intravenous injection (IV), respectively, and the assay compounds were formulated with a vehicle (5% DMSO+10% Solutol+85% pH 4.65 Acetate buffer).
Dosage: 1 mg/kg for intravenous injection and 2 mg/kg for oral administration.
Dosing volume: 5 mL/kg for intravenous injection and 10 mL/kg for oral administration.
The oral administration group was fasted overnight (10-14 h) before the assay, and drank water freely. After 4 hours of administration, they were fed uniformly. They were weighed before administration, and the dosage was calculated according to the body weight.
Intravenous administration: 0.083, 0.25, 0.5, 1, 2, 4, 6, 8, 10 and 24 h after administration;
Oral gavage administration: 0.25, 0.5, 1, 2, 4, 6, 8, 10, 12 and 24 h after administration;
Blood was collected from the jugular vein of rats at the above set time points, about 0.2 mL each time. The blood was anticoagulated with heparin sodium, placed on ice after collection, and centrifuged within 1 hour to separate the plasma (centrifugation conditions: 6800 g, 6 minutes, 2-8° C.). Plasma samples were stored in a −80° C. freezer prior to analysis.
The concentration of each compound in rat plasma was determined by LC/MS/MS method.
Through the plasma drug concentration data at different time points, pharmacokinetic parameters were calculated using Phoenix WinNonlin 7.0, thereby providing parameters such as AUC0-t, AUC0-∞, MRT0-∞, Cmax, Tmax, and T1/2 and mean and standard deviation thereof.

[3] = HeLa cells, 3 days, H3K27me3 level by Western blot
[4] = WSUDLCL2, WSU-DLCL2 cells, cultured to the 9th day, read-out: Anti-proliferation IC50

Row | SMILES | IC50 [1, 3] [nM] | IC50 (WSU-DLCL2 cells; [4]) [nM] | other results
1 | CS(=O)(=O)c1ccc(-c2cnc(NCc3ccco3)n3cnnc23)cc1 [EED226, reference compound] | 220 | 131 | IC50 (Karpas422 cells): 123 nM
2 | Fc1ccc2c(c1CNc1ncc(C3CCCO3)c3nncn13)CCO2 (centres unmarked) [HJM-003] | 54.3 | 131 | 
3 | CCOCCc1cnc(NCc2c(F)ccc3c2CCO3)n2cnnc12 [HJM-010] | 44.6 | 77.8 | 
4 | COCCCc1cnc(NCc2c(F)ccc3c2CCO3)n2cnnc12 [HJM-011] | 33.8 | 86.3 | 
5 | CC(C)Oc1cnc(NCc2c(F)ccc3c2CCO3)n2cnnc12 [HJM-015] | 25.4 | 115 | 
6 | Fc1ccc2c(c1CNc1ncc(OC3CCC3)c3nncn13)CCO2 [HJM-017] | 26.3 | 113 | 
7 | Fc1ccc2c(c1CNc1ncc(OCC3CC3)c3nncn13)CCO2 [HJM-019] | 29.4 | 72 | 
8 | Fc1ccc2c(c1CNc1ncc(OCC3CCOCC3)c3nncn13)CCO2 [HJM-020] | 39.8 | 48.5 | 
9 | CN(C)C(=O)c1cnc(NCc2c(F)ccc3c2CCO3)n2cnnc12 [HJM-025] |  |  | IC50 ([1]; HeLa): 43.3 nM; IC50 (WSU-DLCL2 cells; WSUDLCL2, read-out: Anti-proliferation IC50): 26.4 nM
10 | O=C(c1cnc(NCc2c(F)ccc3c2CCO3)n2cnnc12)N1CCOCC1 [HJM-027] | 89.5 | 58 | 
11 | O=C(Nc1cnc(NCc2c(F)ccc3c2CCO3)n2cnnc12)C1CC1 [HJM-030] | 26.7 | 39.6 | AUC(0-inf) ([2]; IV, 1 mg/kg): 1230 ng·h/mL; Cmax ([2]; IV, 1 mg/kg): 1500 ng/mL; Tmax ([2]; IV, 1 mg/kg): 0.08 h; clearance ([2]; IV, 1 mg/kg): 13.6 mL/min/kg; half-life ([2]; IV, 1 mg/kg): 1.7 h; MRT inf ([2]; IV, 1 mg/kg): 1.02 h; AUC(0-inf) ([2]; PO, 2 mg/kg): 1450 ng·h/mL; Cmax ([2]; PO, 2 mg/kg): 394 ng/mL; Tmax ([2]; PO, 2 mg/kg): 0.42 h; half-life ([2]; PO, 2 mg/kg): 1.32 h; MRT inf ([2]; PO, 2 mg/kg): 2.93 h; F ([2]; PO, 2 mg/kg): 58.53%; IC50 (Karpas422 cells): 42.1 nM
12 | O=C(CC1CC1)Nc1cnc(NCc2c(F)ccc3c2CCO3)n2cnnc12 [HJM-031] | 39.6 | 80.6 | 
13 | O=C(CCC(F)(F)F)Nc1cnc(NCc2c(F)ccc3c2CCO3)n2cnnc12 [HJM-033] | 25.9 | 94.7 | 
14 | O=C(Nc1cnc(NCc2c(F)ccc3c2CCO3)n2cnnc12)C1CCCO1 (centres unmarked) [HJM-037] | 64.7 | 115 | 
15 | O=C(Nc1cnc(NCc2c(F)ccc3c2CCO3)n2cnnc12)c1ccccc1 [HJM-042] | 60.5 | 82 | 
16 | CC(F)C(=O)Nc1cnc(NCc2c(F)ccc3c2CCO3)n2cnnc12 (centres unmarked) [HJM-072] | 30 | 120 | 
17 | CN(C(=O)CC1CC1)c1cnc(NCc2c(F)ccc3c2CCO3)n2cnnc12 [HJM-073] | 39.3 | 29.4 | 
18 | CCN(C(=O)C1CC1)c1cnc(NCc2c(F)ccc3c2CCO3)n2cnnc12 [HJM-079] | 15.3 | 36.8 | AUC(0-inf) ([2]; IV, 1 mg/kg): 857 ng·h/mL; Cmax ([2]; IV, 1 mg/kg): 750 ng/mL; Tmax ([2]; IV, 1 mg/kg): 0.08 h; clearance ([2]; IV, 1 mg/kg): 19.5 mL/min/kg; half-life ([2]; IV, 1 mg/kg): 0.92 h; MRT inf ([2]; IV, 1 mg/kg): 1.1 h; AUC(0-inf) ([2]; PO, 2 mg/kg): 706 ng·h/mL; Cmax ([2]; PO, 2 mg/kg): 222 ng/mL; Tmax ([2]; PO, 2 mg/kg): 0.42 h; half-life ([2]; PO, 2 mg/kg): 1.72 h; MRT inf ([2]; PO, 2 mg/kg): 2.94 h; F ([2]; PO, 2 mg/kg): 40.87%
19 | CN(C)CCC(=O)Nc1cnc(NCc2c(F)ccc3c2CCO3)n2cnnc12 [HJM-082] | 29.9 | 124 | 
20 | COCC(=O)Nc1cnc(NCc2c(F)ccc3c2CCO3)n2cnnc12 [HJM-083] | 28.5 | 28 | 
21 | COCCOCC(=O)Nc1cnc(NCc2c(F)ccc3c2CCO3)n2cnnc12 [HJM-084] | 84 | 86.9 | 
22 | Fc1ccc2c(c1CNc1ncc(OC3COC3)c3nncn13)CCO2 [HJM-100] | 54.3 | 54.8 | 
23 | Fc1ccc2c(c1CNc1ncc(OCC3CCCO3)c3nncn13)CCO2 (centres unmarked) [HJM-101] | 39.5 | 52.6 | 
24 | Fc1ccc2c(c1CNc1ncc(OCC3CCO3)c3nncn13)CCO2 (centres unmarked) [HJM-103] | 94.2 | 148 | 
25 | CC1(COc2cnc(NCc3c(F)ccc4c3CCO4)n3cnnc23)COC1 [HJM-105] | 29.4 | 35.4 | AUC(0-inf) ([2]; IV, 1 mg/kg): 1910 ng·h/mL; Cmax ([2]; IV, 1 mg/kg): 1600 ng/mL; Tmax ([2]; IV, 1 mg/kg): 0.08 h; clearance ([2]; IV, 1 mg/kg): 8.83 mL/min/kg; half-life ([2]; IV, 1 mg/kg): 1.82 h; MRT inf ([2]; IV, 1 mg/kg): 1.56 h; AUC(0-inf) ([2]; PO, 2 mg/kg): 1790 ng·h/mL; Cmax ([2]; PO, 2 mg/kg): 342 ng/mL; Tmax ([2]; PO, 2 mg/kg): 2.83 h; half-life ([2]; PO, 2 mg/kg): 1.41 h; MRT inf ([2]; PO, 2 mg/kg): 3.29 h; F ([2]; PO, 2 mg/kg): 47.22%
26 | CC(Oc1cnc(NCc2c(F)ccc3c2CCO3)n2cnnc12)C1COC1 (centres unmarked) [HJM-106] | 57.7 | 39.8 | 
27 | CN1CC(Oc2cnc(NCc3c(F)ccc4c3CCO4)n3cnnc23)C1 [HJM-114] | 68 | 211 | 
